Our source for the logD values is the SangsterLogP compilation.

This data set can be described thus: method code SF, from DOI: 10.1021/jm101405t, PMID: 21319751. The following applies: pH 7.4.

The logD is the decadic logarithm of the distribution of all forms, ionised or not, between an organic phase and buffer at a given pH. Higher therefore signals higher lipophilicity. `OCCc1ccc(OCc2cccc(-c3ccccn3)c2)cc1` gave a logD of 1.94. With `OCCc1ccc(OCc2cccc(-c3cccs3)c2)cc1`, the logD stood at 3.22. The compound `OCCc1ccc(OCc2ccccc2-c2ccccc2)cc1` returned a log distribution coefficient (logD) of 3.25. With `OCCc1ccc(OCc2ccc(-c3ccccc3)cc2)cc1`, the logD was found to be 3.41.

On to `OCCc1ccc(OCc2cccc(-c3ccccc3)c2)cc1`, for which the logD came out at 3.37. Next, `OCCc1ccc(OCc2ccccc2Oc2ccccc2)cc1`: 3.32. Next, `OCCc1ccc(OCc2cccc(-c3nccs3)c2)cc1`: 2.11; `OCCc1ccc(OCc2ccccc2)cc1`: 1.96; `OCCc1ccc(-c2cccc(OCCc3ccccc3)c2)cc1`: 3.63.
